# Laboratory results from publication PMC4471902, “Block of NMDA receptor channels by endogenous neurosteroids: implications for the agonist induced conformational states of the channel vestibule” (Scientific Reports, 2015).
# Where a name gives a salt, the structure may show the parent alone.
# Columns and labels:
# [1] = molecular target: T1, GluN1ΔC/GluN2BΔC (Rattus norvegicus, UniProt P35439+Q00960); assay: Whole-cell patch-clamp of C-terminal truncated NMDARs in HEK293 cells; format: cell-based
# T1 construct: expressed in transfected cells; host or cells: HEK293
# Text: Human embryonic kidney (HEK293) cells were transfected with expression vectors containing: GluN1–1a (GenBank accession number U08261)[52]; GluN2B (GenBank accession number M91562); GluN1-4a(F484A), (generous gift from Dr. J. J. Woodward)[53] (Smothers & Woodward, 2009); GluN3A (generous gift from Dr. S. A. Lipton)[54] (GenBank accession number NM_138546); GluN1ΔN with deleted 354 amino acids in the NTD (32 to 386); GluN1ΔC with an introduced stop codon in 838 of the CTD GluN2BΔN) with deleted 354 amino acids in the NTD (32 to 386); GluN2BΔC with an introduced stop codon in 844 of the CTD[55]; GluR0 (GenBank accession number Synechocystis PCC 6803) (generous gift from Dr. M. L. Mayer)[18]; and green fluorescent protein (GFP) (pQBI 25, Takara, Tokyo, Japan) genes, as described previously. The Quick-Change site-directed mutagenesis kit (Agilent Technologies, Santa Clara, CA, USA) was used to generate specific point mutations in the M1/M3 region according to the manufacturer’s instructions using manually designed primers purchased from Sigma. Modified DNA plasmids were transformed into competent XL10-Gold E.coli cells, positive clones were selected, and isolated DNA was sequenced. […]
# (§1) The IC50 was determined from a single dose of a steroid using the formula [drawing 1] where I is the relative degree of inhibition and [steroid] is the steroid concentration used. […]
# [2] = tested on: mutated GluN1/GluN2B receptors; assay: PA-S sensitivity of NMDARs mutated in the M1 and M3 regions of GluN1 and GluN2B (HEK293 cells); format: cell-based
# Text: Human embryonic kidney (HEK293) cells were transfected with expression vectors containing: GluN1–1a (GenBank accession number U08261)[52]; GluN2B (GenBank accession number M91562); GluN1-4a(F484A), (generous gift from Dr. J. J. Woodward)[53] (Smothers & Woodward, 2009); GluN3A (generous gift from Dr. S. A. Lipton)[54] (GenBank accession number NM_138546); GluN1ΔN with deleted 354 amino acids in the NTD (32 to 386); GluN1ΔC with an introduced stop codon in 838 of the CTD GluN2BΔN) with deleted 354 amino acids in the NTD (32 to 386); GluN2BΔC with an introduced stop codon in 844 of the CTD[55]; GluR0 (GenBank accession number Synechocystis PCC 6803) (generous gift from Dr. M. L. Mayer)[18]; and green fluorescent protein (GFP) (pQBI 25, Takara, Tokyo, Japan) genes, as described previously. The Quick-Change site-directed mutagenesis kit (Agilent Technologies, Santa Clara, CA, USA) was used to generate specific point mutations in the M1/M3 region according to the manufacturer’s instructions using manually designed primers purchased from Sigma. Modified DNA plasmids were transformed into competent XL10-Gold E.coli cells, positive clones were selected, and isolated DNA was sequenced. […] All mutations were verified by DNA sequencing (Macrogen, Seoul, Korea or SeQme, Dobris, Czech Republic). The amino acids are numbered according to the full-length protein, including the signal peptide, with the initiating methionine as 1.
# Experiments were performed 24–48 hrs after transfection on cells transfected with GluN1/GluN2B/GFP plasmids. Whole-cell voltage-clamp recordings from HEK293 cells were made with a patch-clamp amplifier (Axopatch 200B; Axon Instruments, Inc., Foster City, CA) after a capacitance and series resistance (<10 MΩ) compensation of 80–90%.
# Patch pipettes (3–5 MΩ) were filled with a solution containing (in mM): 120 gluconic acid, 15 CsCl, 10 BAPTA, 10 HEPES, 3 MgCl2, 1 CaCl2, and 2 ATP-Mg salt (pH-adjusted to 7.2 with CsOH). When GluR0 receptor responses were studied, intracellular solution contained (in mM): 120 gluconic acid, 15 KCl, 10 BAPTA, 10 HEPES, 3 MgCl2, 1 CaCl2, and 2 ATP-Mg salt (pH-adjusted to 7.2 with KOH). Extracellular solution (ECS) contained the following (in mM): 160 NaCl, 2.5 KCl, 10 HEPES, 10 glucose, 0.2 EDTA, and 0.7 CaCl2 (pH-adjusted to 7.3 with NaOH). Glycine (10 μM), an NMDAR co-agonist, was present in the control and test solutions. All (PA-S and PA-A) solutions were made from freshly prepared 20 mM PA-S and 5 mM PA-A stock in dimethyl sulfoxide (DMSO). The final dilution to ECS was made at 50 °C and followed by 1 min sonication (SONOREX DIGITEC DT 100/H, BADELIN electronic, Berlin, Germany). The same concentration of DMSO was added to all extracellular solutions. Drug applications were made with a microprocessor-controlled multibarrel fast-perfusion system. Changes in the glutamate-induced current in HEK293 cells transfected by GluN1/GluN2B subunits were used to estimate the rate of solution exchange around the cell. Standard ECS was switched to the ECS diluted by water (50%) during glutamate application. The osmolarity was adjusted by sucrose to match the standard ECS. Glutamate (1 mM), glycine (10 μM) and pH was maintained constant in both solutions. […]
# as §1
structure (smiles),measurement,setting,value
"CC(=O)[C@H]1CC[C@H]2[C@@H]3CC[C@@H]4C[C@H](OS(=O)(=O)O)CC[C@]4(C)[C@H]3CC[C@]12C [PA-S, 20-oxo-5β-pregnan-3α-yl sulfate]",IC50,[1],34 ± 3 µM
same,difference of PA-S IC50 between GluN1(T648A)/GluN2B and GluN1/GluN2B(T647A) receptors,[2],5.4 fold
same,change of PA-S IC50 relative to the WT receptor value,"[2]; GluN1: F654A, GluN2B: P547A/S548A, F550A, L551A/E552A, F637A/F638A, Y646A, M654A, E657A/E658A",less than half
same,change of PA-S IC50 relative to the WT receptor value,"[2]; GluN1: Y647A, T648A, A649T, N650A/L651A, V656A, GluN2B: S645A, T647A, A652T",over two-fold
same,IC50,"[2]; residues whose mutation decreased the IC50 by half (GluN1: F654A; GluN2B: P547A/S548A, F550A, L551A/E552A, F637A/F638A, Y646A, M654A, E657A/E658A)",< 21 µM
same,IC50,"[2]; residues whose mutation increased the IC50 more than two-fold (GluN1: Y647A, T648A, A649T, N650A/L651A, V656A; GluN2B: S645A, T647A, A652T)",> 84 µM
